In patent publication US12144819B2, “Pharmaceutical composition and use” (SpineThera, priority 2012, dated 2024):

Key:
[1] = In-vitro elution of the API from the microparticles in PBS; assay type: physicochemical
Procedure: In-vitro elution of the API from the microparticles can be determined by adding a known amount of the microparticles to 5 mL phosphate buffered saline (PBS) solution at a pH 7.4, and maintaining a constant temperature of 37° C. At selected time intervals, a 2 mL aliquot can be withdrawn through a 0.4 μm filter for analysis; the amount of the aliquot withdrawn can be replenished with an equal amount of preheated PBS. The concentration of the API in the aliquot can be determined according to known methods such as HPLC. Sampling intervals can be adjusted to maintain drug concentration below sink conditions in the test vials.

[2] = Epidural administration in canine subjects using fluoroscopically-guided injection; assay type: in vivo, beagles; conditions: for drug released in-vivo (elution profile): procedure A1 microparticles
Text: This exemplary approach is a modified version of that described by Cohen (vide supra). Male and female beagles can be acclimated and subjected to baseline neurologic and clinical chemistry examinations. Prior to treatment dogs can be anesthetized with propofol. The injection site can be shaved, and a 19-gauge epidural Touhy needle can be inserted at the L6-7 or L7-S1 interspace. A 22-gauge catheter can be threaded 8-10 cm to approximately the L2-L3 level. The position of the catheter can be verified by injection of contrast media under fluoroscopy. Two (2) mL of an aqueous suspension of microparticles, prepared according to procedure A1 above, can be injected over a period of about 2 minutes. After about 10 minutes the catheter can be removed. Before and after surgery, subject baseline measurements can be obtained, including, for example, temperature and specific behavioral measures (pain tolerance, reflex, mobility, etc.). Before injection, and every 2 days after injection for 84 days, heart rate, blood pressure in the tail, spinal reflexes, sensory and pain responses, proprioception, gait and movement, cranial nerve function, and fundoscopic examination data can be recorded to observe the safety of the injected pharmaceutical composition. Blood samples can be collected prior to injection, then at 1, 2, 4, 8, 24, and 72 hour intervals after injection, and every 7 days thereafter to analyze for the pharmaceutical agent and its metabolized forms. At scheduled intervals, necropsy and histopathology can be performed as described by Cohen, vide supra, in a sub-set of animals.
Without wishing to be bound by theory, pharmaceutical compositions of the type described herein are not expected to elicit any significant or appreciable degree of inflammatory response or cause necrosis. Histological examination may reveal the microparticles to be localized and agglomerated within the epidural space at the site of injection with no evidence of the presence of the injection vehicle after 2 about days. Contents of the treated epidural pocket can be recovered by dissection. The injected microparticles can be isolated from epidural tissue and assayed for drug concentration to determine an in-vivo elution profile. It can be reasonably expected that dexamethasone acetate will be released continuously over 12 weeks, with about 20% of the drug released in 3 days, 50% in 25 days, and 80% in 70 days, with complete microparticle polymer degradation in about 16 weeks.

In the case of “9 alpha-fluoro-11-beta, 17-alpha, 21-trihydroxy-16 alpha-methylpregna-1,4-diene-3,20-dione 21-acetate [dexamethasone acetate]”, the “duration of continuous release in-vitro” value [1] is reported as 12 weeks, the drug released in-vitro ([1]; in 3 days) is reported as “about 10%” and the drug released in-vitro ([1]; in 25 days) is reported as ~25%. For the same substance, the drug released in-vitro ([1]; in 70 days) was ~40%, the “duration of continuous release in-vivo” value [2] was 12 weeks and the “time to complete microparticle polymer degradation” value [2] was “about 16 weeks”. The “drug released in-vivo (elution profile)” value ([2]; in 3 days) was “about 20%”, the “drug released in-vivo (elution profile)” value ([2]; in 25 days) was ~50% and the “drug released in-vivo (elution profile)” value ([2]; in 70 days) was ~80%.
